Reference: PMC3969104 (Journal of Medicinal Chemistry, 2014)
Values belong to the compound of their own block, whether it stands above or below them.

Legend:
CK-1δ [1] = target: T1, CK-1δ (Homo sapiens, UniProt P48730); assay: Kinetic studies on CK-1δ; type: biochemical; conditions: ATP 1 to 50 μM, casein 12.5 μM, double reciprocal plot
[2] = system: panel of 456 protein kinases; assay: KinomeScan selectivity screening on a kinase panel; type: binding, human; conditions: 10 μM, 456 kinases; number of kinases bound divided by distinct kinases tested
CDC like kinase 1 (CLK1) = CDC like kinase 1 (CLK1) (Homo sapiens, UniProt P49759); assay: KinomeScan screening, CLK1; type: binding; conditions: 10 μM
CDC like kinase 4 (CLK4) = CDC like kinase 4 (CLK4) (Homo sapiens, UniProt Q9HAZ1); assay: KinomeScan screening, CLK4; type: binding; conditions: 10 μM
CK-1α1 = CK-1α1 (Homo sapiens, UniProt P48729); assay: KinomeScan screening, CK-1α1; type: binding; conditions: 10 μM
CK-1δ [3] = target: T1, CK-1δ; assay: KinomeScan screening, CK-1δ; type: binding; conditions: 10 μM
CK-1ε = CK-1ε (Homo sapiens, UniProt P49674); assay: KinomeScan screening, CK-1ε; type: binding; conditions: 10 μM
CK-1γ2 = CK-1γ2 (Homo sapiens, UniProt P78368); assay: KinomeScan screening, CK-1γ2; type: binding; conditions: 10 μM
DYRK1A = DYRK1A (Homo sapiens, UniProt Q13627); assay: KinomeScan screening, DYRK1A; type: binding; conditions: 10 μM
DYRK1B = DYRK1B (Homo sapiens, UniProt Q9Y463); assay: KinomeScan screening, DYRK1B; type: binding; conditions: 10 μM
[4] = target: fms-related tyrosine kinase 1 (FLT1) (Homo sapiens, UniProt P17948); assay: KinomeScan screening, FLT1; type: binding; conditions: 10 μM
[5] = target: T2, myosin light chain kinase 3 (MLCK) (Homo sapiens, UniProt Q32MK0); assay: KinomeScan screening, MLCK; type: binding; conditions: 10 μM
T2 sequence (Q32MK0 1-819): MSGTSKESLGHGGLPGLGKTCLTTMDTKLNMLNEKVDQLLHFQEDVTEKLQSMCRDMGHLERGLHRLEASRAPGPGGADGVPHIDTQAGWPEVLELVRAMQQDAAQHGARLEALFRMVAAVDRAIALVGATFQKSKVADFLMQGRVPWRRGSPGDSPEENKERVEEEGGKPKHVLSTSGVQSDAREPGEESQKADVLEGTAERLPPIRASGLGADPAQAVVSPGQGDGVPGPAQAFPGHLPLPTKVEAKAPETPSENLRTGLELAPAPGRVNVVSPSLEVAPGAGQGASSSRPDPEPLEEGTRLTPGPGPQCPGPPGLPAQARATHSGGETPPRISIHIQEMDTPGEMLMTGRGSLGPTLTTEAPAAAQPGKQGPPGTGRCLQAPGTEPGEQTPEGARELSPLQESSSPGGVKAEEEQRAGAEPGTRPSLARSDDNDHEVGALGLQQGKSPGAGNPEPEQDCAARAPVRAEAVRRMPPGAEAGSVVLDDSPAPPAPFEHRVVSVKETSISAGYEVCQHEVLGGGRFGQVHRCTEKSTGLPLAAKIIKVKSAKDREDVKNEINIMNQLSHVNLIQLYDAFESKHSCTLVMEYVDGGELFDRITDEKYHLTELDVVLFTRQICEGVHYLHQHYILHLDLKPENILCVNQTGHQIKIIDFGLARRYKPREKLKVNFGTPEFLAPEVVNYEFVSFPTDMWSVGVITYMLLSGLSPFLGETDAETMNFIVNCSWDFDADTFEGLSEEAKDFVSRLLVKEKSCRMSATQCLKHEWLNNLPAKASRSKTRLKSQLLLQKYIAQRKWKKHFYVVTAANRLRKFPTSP

[6] = target: platelet-derived growth factor receptor (PDGFRB) (Homo sapiens, UniProt P09619); assay: KinomeScan screening, PDGFRB; type: binding; conditions: 10 μM
[7] = system: elav-Gal4GS > UAS-hTDP-43 transgenic flies; assay: Lifespan of transgenic hTDP-43 Drosophila; type: in vivo; conditions: 100 nM compound, log rank test versus DMSO
[8] = system: TDP-43 phosphorylation (pS409/410) in HEK293 cells; assay: Ethacrynic acid induced TDP-43 phosphorylation in HEK293 cells
[9] = system: amyotrophic lateral sclerosis (ALS); conditions: ALS patients; cited from earlier work
[10] = PAMPA-BBB permeability assay; conditions: PAMPA vehicle PBS:EtOH (70:30)
290 kinases panel = conditions: cited from earlier work
CK-1δ [11] = target: T1, CK-1δ; type: biochemical
[12] = HEK293, 1.5 h pretreatment, 150 μM ethacrynic acid

T1 sequence (P48730 whole entry): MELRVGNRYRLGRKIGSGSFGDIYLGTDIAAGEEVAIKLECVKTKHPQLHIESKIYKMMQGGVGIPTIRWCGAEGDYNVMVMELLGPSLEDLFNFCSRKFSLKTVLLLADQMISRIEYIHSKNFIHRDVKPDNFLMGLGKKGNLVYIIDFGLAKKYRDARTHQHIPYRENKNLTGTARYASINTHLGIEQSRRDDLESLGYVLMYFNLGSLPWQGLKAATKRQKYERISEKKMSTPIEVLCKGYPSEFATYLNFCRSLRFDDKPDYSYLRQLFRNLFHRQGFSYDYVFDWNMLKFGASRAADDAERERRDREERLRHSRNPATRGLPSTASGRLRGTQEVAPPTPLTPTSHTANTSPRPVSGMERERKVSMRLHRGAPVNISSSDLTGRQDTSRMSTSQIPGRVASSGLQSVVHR
Sequence of DYRK1B (Q9Y463 whole entry): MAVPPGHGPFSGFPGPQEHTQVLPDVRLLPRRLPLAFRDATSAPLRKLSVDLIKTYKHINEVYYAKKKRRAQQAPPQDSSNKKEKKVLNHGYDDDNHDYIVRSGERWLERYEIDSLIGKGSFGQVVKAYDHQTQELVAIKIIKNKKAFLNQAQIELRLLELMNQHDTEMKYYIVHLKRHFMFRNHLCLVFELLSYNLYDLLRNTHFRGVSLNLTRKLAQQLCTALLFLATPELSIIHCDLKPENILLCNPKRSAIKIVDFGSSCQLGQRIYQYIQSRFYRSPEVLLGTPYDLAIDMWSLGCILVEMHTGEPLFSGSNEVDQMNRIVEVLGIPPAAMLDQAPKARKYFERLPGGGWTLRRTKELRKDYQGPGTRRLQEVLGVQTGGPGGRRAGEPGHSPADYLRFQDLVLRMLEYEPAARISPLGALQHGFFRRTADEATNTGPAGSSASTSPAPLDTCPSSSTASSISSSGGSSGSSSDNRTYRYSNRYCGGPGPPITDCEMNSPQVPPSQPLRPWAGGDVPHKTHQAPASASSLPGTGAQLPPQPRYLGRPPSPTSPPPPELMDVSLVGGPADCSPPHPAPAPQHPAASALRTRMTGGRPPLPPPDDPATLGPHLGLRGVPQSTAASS
Sequence of platelet-derived growth factor receptor (PDGFRB) (P09619 33-1106): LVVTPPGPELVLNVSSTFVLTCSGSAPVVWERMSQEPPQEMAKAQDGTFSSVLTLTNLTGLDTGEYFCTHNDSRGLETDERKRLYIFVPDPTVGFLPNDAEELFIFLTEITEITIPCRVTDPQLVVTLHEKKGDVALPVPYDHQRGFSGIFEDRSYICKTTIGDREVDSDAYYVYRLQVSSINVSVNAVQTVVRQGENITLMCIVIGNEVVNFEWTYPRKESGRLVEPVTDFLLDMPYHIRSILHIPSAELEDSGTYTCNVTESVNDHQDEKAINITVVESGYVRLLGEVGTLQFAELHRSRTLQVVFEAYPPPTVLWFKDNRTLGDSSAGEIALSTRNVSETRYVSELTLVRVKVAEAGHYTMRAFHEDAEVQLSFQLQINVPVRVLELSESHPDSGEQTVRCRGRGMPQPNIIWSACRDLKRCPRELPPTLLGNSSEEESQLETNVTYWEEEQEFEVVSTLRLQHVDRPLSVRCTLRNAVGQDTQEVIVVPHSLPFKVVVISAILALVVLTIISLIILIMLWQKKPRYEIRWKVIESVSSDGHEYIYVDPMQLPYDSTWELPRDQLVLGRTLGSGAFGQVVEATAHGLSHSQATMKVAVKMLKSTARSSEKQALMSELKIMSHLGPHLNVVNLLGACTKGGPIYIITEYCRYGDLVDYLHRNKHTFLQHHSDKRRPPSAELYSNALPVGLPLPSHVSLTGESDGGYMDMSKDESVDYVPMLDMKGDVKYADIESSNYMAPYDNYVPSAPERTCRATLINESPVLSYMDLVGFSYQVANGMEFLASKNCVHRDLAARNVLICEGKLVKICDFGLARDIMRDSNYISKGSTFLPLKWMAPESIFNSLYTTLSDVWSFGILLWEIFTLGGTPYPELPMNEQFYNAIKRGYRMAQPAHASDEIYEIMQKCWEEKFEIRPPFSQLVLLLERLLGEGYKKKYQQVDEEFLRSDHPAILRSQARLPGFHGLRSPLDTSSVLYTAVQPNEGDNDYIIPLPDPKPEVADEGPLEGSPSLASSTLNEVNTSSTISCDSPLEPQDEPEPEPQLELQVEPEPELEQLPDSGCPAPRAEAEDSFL
Sequence of CK-1α1 (P48729 whole entry): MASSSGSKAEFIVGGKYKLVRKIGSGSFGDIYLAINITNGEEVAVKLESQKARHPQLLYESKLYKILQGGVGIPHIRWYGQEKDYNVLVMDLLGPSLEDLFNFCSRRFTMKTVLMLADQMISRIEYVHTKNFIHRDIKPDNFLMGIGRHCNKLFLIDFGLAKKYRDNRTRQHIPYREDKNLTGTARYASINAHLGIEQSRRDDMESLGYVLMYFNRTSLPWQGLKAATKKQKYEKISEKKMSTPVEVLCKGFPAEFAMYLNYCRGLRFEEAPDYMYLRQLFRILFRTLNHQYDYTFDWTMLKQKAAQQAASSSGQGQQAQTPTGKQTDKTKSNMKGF
Sequence of CDC like kinase 1 (CLK1) (P49759 whole entry): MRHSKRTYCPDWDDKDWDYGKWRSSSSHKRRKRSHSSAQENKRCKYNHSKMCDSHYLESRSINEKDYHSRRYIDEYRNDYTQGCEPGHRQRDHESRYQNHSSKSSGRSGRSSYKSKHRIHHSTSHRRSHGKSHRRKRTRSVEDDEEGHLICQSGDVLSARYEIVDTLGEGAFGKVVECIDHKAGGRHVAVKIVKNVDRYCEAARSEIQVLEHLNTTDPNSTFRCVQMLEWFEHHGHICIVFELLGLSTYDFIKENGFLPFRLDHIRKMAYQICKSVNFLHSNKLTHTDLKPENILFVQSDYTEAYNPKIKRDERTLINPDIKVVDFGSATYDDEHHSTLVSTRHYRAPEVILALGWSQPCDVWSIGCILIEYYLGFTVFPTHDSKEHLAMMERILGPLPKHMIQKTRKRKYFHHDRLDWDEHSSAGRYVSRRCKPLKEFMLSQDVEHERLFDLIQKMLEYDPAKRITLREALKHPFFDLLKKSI
Sequence of CK-1ε (P49674 whole entry): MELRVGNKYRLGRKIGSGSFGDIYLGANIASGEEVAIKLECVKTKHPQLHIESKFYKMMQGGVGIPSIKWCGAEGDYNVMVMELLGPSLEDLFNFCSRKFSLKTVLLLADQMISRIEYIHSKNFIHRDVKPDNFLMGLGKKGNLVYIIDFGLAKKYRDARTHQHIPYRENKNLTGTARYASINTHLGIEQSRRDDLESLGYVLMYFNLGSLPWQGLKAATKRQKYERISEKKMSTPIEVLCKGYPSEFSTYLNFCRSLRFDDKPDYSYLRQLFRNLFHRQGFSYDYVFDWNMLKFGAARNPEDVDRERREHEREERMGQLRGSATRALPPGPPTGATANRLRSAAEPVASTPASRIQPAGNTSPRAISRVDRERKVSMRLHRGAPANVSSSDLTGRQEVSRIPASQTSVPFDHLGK
Sequence of CK-1γ2 (P78368 whole entry): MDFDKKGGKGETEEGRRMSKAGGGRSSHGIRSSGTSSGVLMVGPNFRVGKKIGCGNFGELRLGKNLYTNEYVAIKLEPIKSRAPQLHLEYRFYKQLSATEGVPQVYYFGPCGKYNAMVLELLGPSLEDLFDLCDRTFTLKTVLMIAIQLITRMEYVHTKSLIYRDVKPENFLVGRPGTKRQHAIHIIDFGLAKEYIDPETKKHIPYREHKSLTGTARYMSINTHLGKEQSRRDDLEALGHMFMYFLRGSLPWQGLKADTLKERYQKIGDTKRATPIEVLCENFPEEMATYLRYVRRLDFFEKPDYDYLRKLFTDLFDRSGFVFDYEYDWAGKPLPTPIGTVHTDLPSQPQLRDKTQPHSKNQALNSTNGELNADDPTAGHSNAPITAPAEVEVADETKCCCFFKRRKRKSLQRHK
Sequence of CDC like kinase 4 (CLK4) (Q9HAZ1 whole entry): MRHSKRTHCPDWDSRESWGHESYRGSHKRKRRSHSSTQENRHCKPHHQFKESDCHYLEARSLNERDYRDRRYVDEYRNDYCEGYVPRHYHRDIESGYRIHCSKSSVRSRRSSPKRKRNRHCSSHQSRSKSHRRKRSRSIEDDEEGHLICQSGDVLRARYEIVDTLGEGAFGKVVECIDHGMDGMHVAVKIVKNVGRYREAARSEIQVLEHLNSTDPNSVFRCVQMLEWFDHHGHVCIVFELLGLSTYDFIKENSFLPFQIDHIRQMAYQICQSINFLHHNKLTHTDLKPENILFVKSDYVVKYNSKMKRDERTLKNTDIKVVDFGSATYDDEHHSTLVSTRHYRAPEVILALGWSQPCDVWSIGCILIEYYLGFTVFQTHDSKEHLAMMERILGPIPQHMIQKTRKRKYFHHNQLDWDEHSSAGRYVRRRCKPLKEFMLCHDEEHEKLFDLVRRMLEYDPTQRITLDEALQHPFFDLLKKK

- mechanism of CK-1δ inhibition with respect to ATP (CK-1δ [1]): ATP competitive inhibition
- selectivity score (S score) [2]: 0.04
- inhibition of CLK1 (CDC like kinase 1 (CLK1)): inhibited
- inhibition of CLK4 (CDC like kinase 4 (CLK4)): inhibited
- inhibition of CK-1α1 (CK-1α1): inhibited
- inhibition of CK-1δ (CK-1δ [3]): inhibited
- inhibition of CK-1ε (CK-1ε): inhibited
- inhibition of CK-1γ2 (CK-1γ2): inhibited
- inhibition of DYRK1A (DYRK1A): inhibited
- inhibition of DYRK1B (DYRK1B): inhibited
- inhibition of FLT1 [4]: inhibited
- inhibition of MLCK [5]: inhibited
- inhibition of PDGFRB [6]: inhibited
SMILES: O=C(Cc1cccc(Cl)c1)Nc1nc2ccc(C(F)(F)F)cc2s1 [Compound 20, 2-(3-Chlorophenyl)-N-(6-(trifluoromethyl)benzothiazol-2-yl)acetamide]
- effect on fly lifespan [7]: significantly increased
- concentration with inhibition of TDP-43 phosphorylation [8, 12]: above 80 μM

SMILES: O=C(Cc1cccc(C(F)(F)F)c1)Nc1nc2ccc(C(F)(F)F)cc2s1 [Compound 41, N-(6-(Trifluoromethyl)benzothiazol-2-yl)-2-(3-(trifluoromethyl)phenyl)acetamide]
- fold reduction in TDP-43 phosphorylation ([8]; HEK293, by 10 μM inhibitor): greater than 2 fold

SMILES: Nc1nc2ccc(OC(F)(F)F)cc2s1 [Riluzole]
- extension of survival [9]: 2–3 months

SMILES: O=C(Cc1ccccc1)Nc1nc2ccc(C(F)(F)F)cc2s1 [Compound 46, N-(6-(Trifluoromethyl)benzothiazol-2-yl)-2-phenylacetamide]
- concentration with nearly complete absence of TDP-43 phosphorylation ([8]; HEK293, 1.5 h pretreatment, 150 μM ethacrynic acid, range 1.25-160 μM): ≥ 2.5 µM

SMILES: O=C(Cc1ccc(Cl)cc1)Oc1nc2ccccc2s1 [Compound 9, (Benzothiazol-2-yl)-2-(4-chlorophenyl)acetate]
- effect on fly lifespan [7]: did not significantly modify fly longevity

- mechanism of CK-1δ inhibition with respect to ATP (CK-1δ [1]): ATP competitive inhibition
SMILES: COc1ccccc1CC(=O)Nc1nc2ccc(C(F)(F)F)cc2s1 [Compound 34, N-(6-(Trifluoromethyl)benzothiazol-2-yl)-2-(2-methoxyphenyl)acetamide]
- concentration with inhibition of TDP-43 phosphorylation [8, 12]: above 80 μM

SMILES: COc1cccc(CC(=O)Nc2nc3ccc(C(F)(F)F)cc3s2)c1 [Compound 38, N-(6-(Trifluoromethyl)benzothiazol-2-yl)-2-(3-methoxyphenyl)acetamide]
- concentration giving significant reduction of TDP-43 phosphorylation [8, 12]: 5 µM

- mechanism of CK-1δ inhibition with respect to ATP (CK-1δ [1]): ATP competitive inhibition
- inhibition of CLK1 (CDC like kinase 1 (CLK1)): inhibited
- inhibition of CLK4 (CDC like kinase 4 (CLK4)): inhibited
- inhibition of CK-1α1 (CK-1α1): inhibited
- inhibition of CK-1δ (CK-1δ [3]): inhibited
- inhibition of CK-1ε (CK-1ε): inhibited
- inhibition of CK-1γ2 (CK-1γ2): inhibited
- inhibition of DYRK1A (DYRK1A): inhibited
- inhibition of DYRK1B (DYRK1B): inhibited
- inhibition of FLT1 [4]: inhibited
- inhibition of MLCK [5]: inhibited
- inhibition of PDGFRB [6]: inhibited
- solubility in the assay vehicle [10]: low solubility
SMILES: O=C(Cc1ccccc1Cl)Nc1nc2ccc(C(F)(F)F)cc2s1 [Compound 24, 2-(2-Chlorophenyl)-N-(6-(trifluoromethyl)benzothiazol-2-yl)acetamide]
- effect on fly lifespan [7]: significantly increased
- concentration with moderate inhibition of TDP-43 phosphorylation [8, 12]: ≥ 1.25 µM

- mechanism of CK-1δ inhibition with respect to ATP (CK-1δ [1]): ATP competitive inhibitor
SMILES: COc1cc(OC)c(C=C2C(=O)Nc3ccccc32)c(OC)c1 [IC261, reference compound]

SMILES: CS(=O)(=O)CCNCc1ccc(-c2ccc3ncnc(Nc4ccc(OCc5cccc(F)c5)c(Cl)c4)c3c2)o1 [Lapatinib]
- S score (290 kinases panel): 0.010

SMILES: CCN(CC)CCNC(=O)c1c(C)[nH]c(/C=C2\C(=O)Nc3ccc(F)cc32)c1C [Sunitinib]
- S score (290 kinases panel): 0.57

- fold less potent than 20 and 24 as CK-1δ inhibitor (CK-1δ [11]): 100 fold
SMILES: COc1ccc2nc(NC(=O)Cc3ccccc3OC)sc2c1 [Compound 35, N-(6-Methoxybenzothiazol-2-yl)-2-(2-methoxyphenyl)acetamide]
- effect on fly lifespan [7]: significantly increased
